Key:
[1] = biological target: T1, human prolyl-tRNA synthetase (ProRS domain of GluProRS) (Homo sapiens, UniProt P07814); test: TR-FRET ligand displacement with […] ATP; format: binding
T1 construct: gene EPRS1; recombinant human ProRS
T1 sequence (P07814 998-1512): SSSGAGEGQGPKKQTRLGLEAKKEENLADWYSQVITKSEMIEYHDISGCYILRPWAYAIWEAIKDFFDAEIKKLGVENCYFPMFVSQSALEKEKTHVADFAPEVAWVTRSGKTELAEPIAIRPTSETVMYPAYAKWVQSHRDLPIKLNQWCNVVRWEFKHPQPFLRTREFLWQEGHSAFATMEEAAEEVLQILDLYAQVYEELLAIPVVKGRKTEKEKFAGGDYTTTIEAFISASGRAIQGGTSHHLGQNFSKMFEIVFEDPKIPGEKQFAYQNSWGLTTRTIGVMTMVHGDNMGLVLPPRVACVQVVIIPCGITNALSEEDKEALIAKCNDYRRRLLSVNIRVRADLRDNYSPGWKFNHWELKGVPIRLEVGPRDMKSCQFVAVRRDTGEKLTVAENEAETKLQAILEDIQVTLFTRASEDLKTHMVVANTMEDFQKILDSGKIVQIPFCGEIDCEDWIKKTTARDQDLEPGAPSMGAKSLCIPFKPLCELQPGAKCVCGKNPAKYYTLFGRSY

[2] = biological target: T1, human prolyl-tRNA synthetase (ProRS domain of GluProRS); test: TR-FRET ligand displacement with […] proline; crystal structure with proline; format: binding

| Structure (SMILES) | Kd [1] [nM] | Kd [2] [nM] |
| --- | --- | --- |
| O=C(CC1NCCCC1O)Cn1cnc2cc(Br)c(Cl)cc2c1=O (centres unmarked) [HFG, Halofuginone] | 0.19 | – |
| O=C(NC1Cc2ccccc2C1)c1nccnc1NC(=O)N1CCCCC1 [NCP26] | – | 0.35 |
